Experimental data as given in paper PMC8746797, “Design, Synthesis, and Structure–Activity Relationship Study of Potent MAPK11 Inhibitors” (Molecules, 2021).
Where two headings read alike, the source gives them in different places.

What was measured:
MAPK11 = MAPK11 (Homo sapiens, UniProt Q15759); test: Enzyme assay against MAPK11 (mobility shift assay); assay type: biochemical; settings: for IC50: mobility shift assay, mean ± SD of at least two independent determinations, read-out: MAPK11 Enzyme Inhibitory Activity IC50
Protocol: The effect of the above synthesized inhibitors on MAPK11 kinase activity in vitro was assessed using mobility shift assay by ChemPartner. Following the kinase reaction, a part of the substrate was added to a phosphate group under the action of the kinase to yield a product. The substrate and the product have a difference of 3 charges, thereby allowing them to be separated and detected by capillary electrophoresis. […] Finally, the data was fitted to the XLFit Excel plug-in version 5.4.0.8 to calculate the IC50 value.

MAPK14 = settings: cited from earlier work

MAPK11, sequence (Q15759 whole entry): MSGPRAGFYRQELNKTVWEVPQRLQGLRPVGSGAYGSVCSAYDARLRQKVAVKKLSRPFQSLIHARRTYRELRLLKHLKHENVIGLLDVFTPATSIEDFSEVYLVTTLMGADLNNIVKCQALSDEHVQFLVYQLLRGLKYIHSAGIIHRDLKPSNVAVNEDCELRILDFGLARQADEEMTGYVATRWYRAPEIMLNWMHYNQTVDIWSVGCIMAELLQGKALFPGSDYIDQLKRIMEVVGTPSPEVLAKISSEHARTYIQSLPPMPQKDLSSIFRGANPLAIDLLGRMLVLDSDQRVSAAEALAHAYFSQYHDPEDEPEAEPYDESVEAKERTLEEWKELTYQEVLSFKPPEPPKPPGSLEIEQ

Compound	IC50 (MAPK11)	melting point	also measured
Cc1cc(OCCCC(=O)O)cc2c1CCc1cc(Nc3ccc(F)cc3F)ccc1C2=O [Compound 13b, 4-((8-((2,4-difluorophenyl)amino)-1-methyl-5-oxo-10,11-dihydro-5H-dibenzo [a,d][7]annulen-3-yl)oxy)butanoic acid]	0.0042 ± 0.0001 µM	120.4 to 120.6 °C	–
Cc1cc(OC[C@H](O)CO)cc2c1CCc1cc(Nc3ccc(F)cc3F)ccc1C2=O [Compound 12b]	0.0145 ± 0.0003 µM	135.1 to 135.8 °C	–
O=C1c2ccc(Nc3ccc(F)cc3F)cc2CCc2ccc(OC[C@H](O)CO)cc21 [Compound 12a, reference compound]	0.0192 ± 0.0009 µM	–	IC50 (MAPK14): 0.005 µM
O=C(O)CCCOc1ccc2c(c1)C(=O)c1ccc(Nc3ccc(F)cc3F)cc1CC2 [Compound 13a]	0.0064 ± 0.0006 µM	–	fold more potent than 12a (skepinone-L) against MAPK11 (MAPK11; ratio of IC50 values vs 12a): 3 fold
O=S(=O)(c1ccc(Nc2ccc(F)cc2F)cc1)c1cccc(OC[C@@H](O)CO)c1 [Compound 23c]	> 10 µM	136.3 to 136.7 °C	–
NC(=O)CCCOc1ccc2c(c1)C(=O)c1ccc(Nc3ccc(F)cc3F)cc1CC2 [Compound 14a]	0.0084 ± 0.0001 µM	–	–
COC(=O)CCCOc1cccc(S(=O)(=O)c2ccc(Nc3ccc(F)cc3F)cc2)c1 [Compound 23d]	–	126.8 to 127.4 °C	–
O=C1c2ccc(Nc3ccc(F)cc3F)cc2CCc2ccc(OCCCO)cc21 [Compound 12d]	0.0259 ± 0.0007 µM	–	–
CC(C)(C)Cn1c(N)nc2ccc(-c3[nH]c(C(C)(C)C)nc3-c3ccc(F)cc3)nc21 [LY2228820]	–	–	IC50 (MAPK14; Figure 1): 0.0053 µM
Cc1cc(OCCCO)cc2c1CCc1cc(Nc3ccc(F)cc3F)ccc1C2=O [Compound 12e]	0.0164 ± 0.0006 µM	127.2 to 127.7 °C	–
COC(=O)CCCOc1ccc2c(c1)C(=O)c1ccc(Nc3ccc(F)cc3F)cc1CC2 [Compound 12f]	0.061 ± 0.0021 µM	124.6 to 125 °C	decrease in potency against MAPK11 relative to 13a (MAPK11; ester 12f vs carboxylic acid 13a): about 10 fold
O=C(O)CCCOc1cccc([S+]([O-])c2ccc(Nc3ccc(F)cc3F)cc2)c1 (stereo not drawn) [Compound 25]	2.55 ± 0.682 µM	–	decrease in potency against MAPK11 compared to dibenzocycloheptanone compounds (MAPK11): more than a hundred-fold decrease
O=C1c2ccc(Nc3ccc(F)cc3F)cc2CCc2ccc(OC[C@@H](O)CO)cc21 [Compound 12c]	0.032 ± 0.0006 µM	–	–
O=C(O)CCCOc1cccc(S(=O)(=O)c2ccc(Nc3ccc(F)cc3F)cc2)c1 [Compound 26]	> 10 µM	132.6 to 133.1 °C	–
O=C1c2ccc(Nc3ccc(F)cc3F)cc2CCc2ccc(OC3CC(C(=O)O)C3)cc21 (stereo not drawn) [Compound 13c]	0.0143 ± 0.0006 µM	145.3 to 145.9 °C	–
O=S(=O)(c1ccc(Nc2ccc(F)cc2F)cc1)c1cccc(OC[C@H](O)CO)c1 [Compound 23b]	> 10 µM	135.9 to 136.6 °C	–
